Literature values as cited in patent US11208380B2, “Process for the purification of caprolactam from a solution of crude caprolactam without organic solvent extraction” (AquafilSLO d.o.o., priority 2017, dated 2021).

Compound	LD50, rat, oral administration
c1ccccc1 [Benzene]	930 mg/kg
ClC=C(Cl)Cl [Trichloroethylene]	5400 mg/kg
